In ChEMBL document CHEMBL1135394, “Improvement in the selectivity and metabolic stability of the serotonin 5-HT(1A) ligand, S 15535: a series of cis- and trans-2-(arylcycloalkylamine) 1-indanols” (J Med Chem, 2002):

Columns and labels:
[1] = target: T1, Adrenergic receptor alpha-1 (Rattus norvegicus, UniProt P15823+P23944+P43140); test: Binding affinity at Alpha-1 adrenergic receptor by inhibition of [3H]-prazosin binding to rat cortex
T1 sequence (P15823 whole entry): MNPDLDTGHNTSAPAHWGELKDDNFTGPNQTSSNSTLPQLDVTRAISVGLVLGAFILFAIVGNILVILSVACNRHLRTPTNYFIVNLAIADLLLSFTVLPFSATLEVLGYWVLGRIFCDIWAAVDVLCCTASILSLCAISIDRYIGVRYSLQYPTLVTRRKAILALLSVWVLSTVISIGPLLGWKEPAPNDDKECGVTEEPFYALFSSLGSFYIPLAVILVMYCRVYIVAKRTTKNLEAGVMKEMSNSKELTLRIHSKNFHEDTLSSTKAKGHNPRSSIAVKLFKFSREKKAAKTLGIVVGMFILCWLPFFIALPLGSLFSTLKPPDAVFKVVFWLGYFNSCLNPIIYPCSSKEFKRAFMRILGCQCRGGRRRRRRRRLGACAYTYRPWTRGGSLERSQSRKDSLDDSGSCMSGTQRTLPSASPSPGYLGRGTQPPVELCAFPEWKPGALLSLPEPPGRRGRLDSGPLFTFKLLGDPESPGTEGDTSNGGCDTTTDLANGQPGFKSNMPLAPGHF
T1 sequence (P23944 whole entry): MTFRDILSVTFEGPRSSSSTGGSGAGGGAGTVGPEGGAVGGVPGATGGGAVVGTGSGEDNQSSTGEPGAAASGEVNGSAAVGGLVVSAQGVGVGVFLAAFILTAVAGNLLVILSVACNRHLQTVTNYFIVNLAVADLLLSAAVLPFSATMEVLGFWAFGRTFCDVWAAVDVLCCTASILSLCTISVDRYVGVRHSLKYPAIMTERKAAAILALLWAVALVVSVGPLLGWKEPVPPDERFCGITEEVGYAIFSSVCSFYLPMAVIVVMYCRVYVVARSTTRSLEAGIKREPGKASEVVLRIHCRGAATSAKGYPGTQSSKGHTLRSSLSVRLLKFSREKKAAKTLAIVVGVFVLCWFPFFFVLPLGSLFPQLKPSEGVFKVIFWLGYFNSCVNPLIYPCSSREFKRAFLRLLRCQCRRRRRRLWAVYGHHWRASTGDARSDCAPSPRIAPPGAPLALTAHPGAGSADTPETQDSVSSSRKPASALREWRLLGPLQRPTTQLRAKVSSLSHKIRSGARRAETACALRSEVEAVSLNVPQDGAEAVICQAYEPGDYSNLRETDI
T1 sequence (P43140 whole entry): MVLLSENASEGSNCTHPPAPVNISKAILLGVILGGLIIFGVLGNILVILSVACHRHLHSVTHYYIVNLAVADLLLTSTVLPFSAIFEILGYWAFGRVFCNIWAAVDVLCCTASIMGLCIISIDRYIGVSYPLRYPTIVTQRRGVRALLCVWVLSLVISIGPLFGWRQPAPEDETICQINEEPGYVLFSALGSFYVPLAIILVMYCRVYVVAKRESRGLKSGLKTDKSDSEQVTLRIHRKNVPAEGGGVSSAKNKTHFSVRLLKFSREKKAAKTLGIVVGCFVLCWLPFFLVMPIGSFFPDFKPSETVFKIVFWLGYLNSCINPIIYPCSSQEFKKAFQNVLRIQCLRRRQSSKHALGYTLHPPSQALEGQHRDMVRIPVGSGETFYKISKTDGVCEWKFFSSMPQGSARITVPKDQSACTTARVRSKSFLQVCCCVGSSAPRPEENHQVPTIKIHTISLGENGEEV

[2] = target: T2, 5-hydroxytryptamine receptor 1A (Homo sapiens, UniProt P08908); test: Binding affinity at human 5-hydroxytryptamine 1A receptor by inhibition of [3H]8-OH-DPAT binding in Chinese hamster ovary cell line; format: cell-based
T2 sequence (P08908 whole entry): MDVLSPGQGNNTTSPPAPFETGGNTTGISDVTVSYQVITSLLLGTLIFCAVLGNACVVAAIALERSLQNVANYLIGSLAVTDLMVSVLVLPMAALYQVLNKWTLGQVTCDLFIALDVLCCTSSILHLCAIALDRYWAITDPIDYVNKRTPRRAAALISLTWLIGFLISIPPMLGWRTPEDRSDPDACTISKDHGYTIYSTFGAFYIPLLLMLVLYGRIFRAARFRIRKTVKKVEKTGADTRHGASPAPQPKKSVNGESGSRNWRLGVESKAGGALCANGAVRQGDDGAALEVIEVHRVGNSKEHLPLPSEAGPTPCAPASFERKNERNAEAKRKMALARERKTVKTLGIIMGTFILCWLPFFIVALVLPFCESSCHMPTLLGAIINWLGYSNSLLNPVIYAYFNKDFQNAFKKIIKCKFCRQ

[3] = In vitro oral metabolic bioavailability after incubation with hepatic microsomes; format: ADME, Liver; conditions: read-out: MF
[4] = Selectivity ratio towards Alpha-1 adrenergic receptor to human 5-hydroxytryptamine 1A receptor
[5] = target: T3, 5-hydroxytryptamine receptor 1A (Rattus norvegicus) (UniProt P19327); test: Antagonistic activity at postsynaptic 5-hydroxytryptamine 1A receptor was measured by its ability to inhibit hypothermia elicited by s.c. administration of 8-OH-DPAT in rat;ranges from (0.10-6.20); format: functional, organism-based
T3 sequence (whole entry): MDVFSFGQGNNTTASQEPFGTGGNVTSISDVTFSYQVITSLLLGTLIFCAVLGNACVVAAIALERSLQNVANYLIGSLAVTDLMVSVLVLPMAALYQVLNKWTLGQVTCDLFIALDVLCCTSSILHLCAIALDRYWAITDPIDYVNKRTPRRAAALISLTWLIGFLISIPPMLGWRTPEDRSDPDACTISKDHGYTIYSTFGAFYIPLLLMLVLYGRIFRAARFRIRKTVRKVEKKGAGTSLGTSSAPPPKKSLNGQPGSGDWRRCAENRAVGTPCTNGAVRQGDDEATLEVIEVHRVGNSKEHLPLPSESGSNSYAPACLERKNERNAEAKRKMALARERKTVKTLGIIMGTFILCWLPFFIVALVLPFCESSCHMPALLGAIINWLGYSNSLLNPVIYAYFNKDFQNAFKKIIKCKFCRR

[6] = target: T3, 5-hydroxytryptamine receptor 1A (Rattus norvegicus); test: Antagonistic activity at postsynaptic 5-hydroxytryptamine 1A receptor was measured by its ability to inhibit hypothermia elicited by s.c. administration of 8-OH-DPAT in rat;ranges from (0.72-2.87); format: functional, organism-based
[7] = target: T3, 5-hydroxytryptamine receptor 1A (Rattus norvegicus); test: Antagonistic activity at postsynaptic 5-hydroxytryptamine 1A receptor was measured by its ability to inhibit hypothermia elicited by s.c. administration of 8-OH-DPAT in rat;ranges from (0.37-4.27); format: functional, organism-based
[8] = target: T3, 5-hydroxytryptamine receptor 1A (Rattus norvegicus); test: Antagonistic activity at postsynaptic 5-hydroxytryptamine 1A receptor was measured by its ability to inhibit hypothermia elicited by s.c. administration of 8-OH-DPAT in rat;ranges from (0.40-2.70); format: functional, organism-based
[9] = target: T3, 5-hydroxytryptamine receptor 1A (Rattus norvegicus); test: Antagonistic activity at postsynaptic 5-hydroxytryptamine 1A receptor was measured by its ability to inhibit hypothermia elicited by s.c. administration of 8-OH-DPAT in rat;ranges from (1.50-16.5); format: functional, organism-based
[10] = target: T3, 5-hydroxytryptamine receptor 1A (Rattus norvegicus); test: Antagonistic activity at postsynaptic 5-hydroxytryptamine 1A receptor was measured by its ability to inhibit hypothermia elicited by s.c. administration of 8-OH-DPAT in rat;ranges from (0.80-5.80); format: functional, organism-based
[11] = target: T3, 5-hydroxytryptamine receptor 1A (Rattus norvegicus); test: Antagonistic activity at postsynaptic 5-hydroxytryptamine 1A receptor was measured by its ability to inhibit hypothermia elicited by s.c. administration of 8-OH-DPAT in rat;ranges from (0.60-1.60); format: functional, organism-based

Compound	Log Ki [1]	Ki [2]	Fh [3]	Ratio [4]	further results
O=[N+]([O-])c1ccc2c(c1)[C@@H](O)[C@H](N1CCN(c3cccc4c3OCCO4)CC1)C2 (relative stereo)	-6.03	0.741 nM	71%	1260	ID50 [5]: 0.9 mg/kg
c1ccc2c(c1)CC(N1CCN(c3cccc4c3OCCO4)CC1)C2	-6.9	0.794 nM	4%	158	ID50 [6]: 1.44 mg/kg
COc1ccc2c(c1)C[C@@H](N1CCN(c3cccc4c3OCCO4)CC1)[C@@H]2O (racemic)	-6.55	1.26 nM	80%	–	–
COc1ccc2c(c1)[C@@H](O)[C@H](N1CCN(c3cccc4c3OCCO4)CC1)C2 (relative stereo)	-6.57	0.447 nM	62%	603	ID50 [7]: 1.25 mg/kg
O[C@H]1c2ccccc2C[C@H]1N1CC=C(c2cccc3c2OCCO3)CC1 (relative stereo)	–	22.9 nM	–	–	–
O[C@H]1c2ccc(F)cc2C[C@H]1N1CCC(O)(c2cccc3c2OCCO3)CC1 (relative stereo)	–	> 1000 nM	–	–	–
O[C@@H]1c2ccc(F)cc2C[C@H]1N1CCN(c2cc(Cl)cc3c2OCCO3)CC1 (relative stereo)	-6.07	1.32 nM	–	645	–
O[C@@H]1c2ccc(F)cc2C[C@H]1N1CCC(O)(c2cccc3c2OCCO3)CC1 (relative stereo)	-6.31	> 1000 nM	–	< 1	–
COc1ccc2c(c1)[C@H](O)[C@H](N1CCN(c3cccc4c3OCCO4)CC1)C2 (relative stereo)	–	17.4 nM	–	–	–
O[C@@H]1c2ccc(F)cc2C[C@H]1N1CCN(c2cccc3c2OCCO3)CC1 (stereo in doubt; (+))	–	0.631 nM	–	–	–
O[C@@H]1c2ccc(F)cc2C[C@H]1N1CC=C(c2cccc3c2SCCC3)CC1 (relative stereo)	–	11.7 nM	–	–	–
COc1ccc2c(c1)C[C@@H](N1CCN(c3cccc4c3OCCO4)CC1)[C@@H]2O (stereo in doubt; (+))	–	6.61 nM	–	–	–
COc1ccc2c(c1)C[C@@H](N1CCN(c3cccc4c3OCCO4)CC1)[C@H]2O (relative stereo)	–	23.4 nM	–	–	–
OCC1COc2c(cc(Cl)cc2N2CCN([C@@H]3Cc4cc(F)ccc4[C@H]3O)CC2)O1 (relative stereo)	-6.17	10.5 nM	–	64	–
COc1ccc2c(c1)C[C@@H](N1CCN(c3cccc4c3OCCO4)CC1)[C@@H]2O (stereo in doubt; (-))	–	1.02 nM	–	–	–
O[C@@H]1c2cc(F)ccc2C[C@H]1N1CCN(c2cccc3c2OCCO3)CC1 (relative stereo)	-6.13	1.32 nM	46%	561	ID50 [8]: 1 mg/kg
COc1cc2c(cc1OC)[C@@H](O)[C@H](N1CCC(c3cccc4c3OCCO4)CC1)C2 (relative stereo)	-6.9	79.4 nM	–	1.5	–
O[C@@H]1c2cc3c(cc2C[C@H]1N1CCC(c2cccc4c2OCCO4)CC1)OCO3 (relative stereo)	-7.53	0.525 nM	8%	56	ID50 [11]: 1 mg/kg

Further lines, with some results ahead:

Log Ki [1]	Ki [2]	Fh [3]	Ratio [4]	Compound	further results
-7.64	0.302 nM	–	76	O[C@@H]1c2ccc(F)cc2C[C@H]1N1CCC(c2cccc3c2OCCC3)CC1 (relative stereo)	–
-7.26	4.9 nM	–	11	O[C@@H]1c2ccc(F)cc2C[C@H]1N1CCC(c2cc(F)cc3c2OCCC3)CC1 (relative stereo)	–
-7.44	0.55 nM	–	66	Cc1ccc2c(c1)[C@@H](O)[C@H](N1CCC(c3cccc4c3OCCO4)CC1)C2 (relative stereo)	–
-7.77	1.17 nM	–	14.5	Cc1ccc2c(c1)C[C@@H](N1CCC(c3cccc4c3OCCO4)CC1)[C@@H]2O (relative stereo)	–
-6.67	1.29 nM	–	166	O[C@@H]1c2ccc(F)cc2C[C@H]1N1CCN(c2cccc3c2OCCC3)CC1 (relative stereo)	–
–	2.04 nM	–	–	O[C@@H]1c2ccc(F)cc2C[C@H]1N1CCN(c2cccc3c2OCCO3)CC1 (stereo in doubt; (-))	–
–	26.9 nM	–	–	O[C@H]1c2ccc(F)cc2C[C@H]1N1CCC(c2cccc3c2OCCO3)CC1 (relative stereo)	–
-7.19	0.437 nM	7%	148	O[C@@H]1c2ccc(F)cc2C[C@H]1N1CCC(c2cccc3c2OCCO3)CC1 (relative stereo)	–
-7.34	1.51 nM	–	30	O[C@@H]1c2ccc(F)cc2C[C@H]1N1CCC(c2cccc3c2OCC3)CC1 (relative stereo)	–
–	316 nM	–	–	O[C@H]1c2ccc(F)cc2C[C@H]1N1CCN(c2cccc3c2OCCC3)CC1 (relative stereo)	–
-7.08	2.19 nM	5%	38	O[C@@H]1c2cc(F)c(F)cc2C[C@H]1N1CCC(c2cccc3c2OCCO3)CC1 (relative stereo)	ID50 [9]: 5 mg/kg
-7.1	0.776 nM	8%	102	O[C@@H]1c2cc(F)ccc2C[C@H]1N1CCC(c2cccc3c2OCCO3)CC1 (relative stereo)	ID50 [10]: 2.1 mg/kg
-6.15	1.26 nM	65%	–	O[C@@H]1c2ccc(F)cc2C[C@H]1N1CCN(c2cccc3c2OCCO3)CC1 (racemic)	–
